# Like-named read-outs stand apart in the source and are kept apart here.
# What was measured:
# U2OS human osteosarcoma = experiment: Cell growth, resazurin assay, U2OS; type: cell-based; details: 96-h exposure (table title), read-out: IC50 U2OS (bone)
# Description: (§4) Cells were cultured in 10 mL of Advanced DMEM/F12 (ADMEM/F12), supplemented with 5% FBS, 2 mM GlutaMAX, and 1% Penicillin-Streptomycin in 10 cm tissue culture plates. Cells were then plated into 96-well plates with about 2.5×10^3 cells per well. Cells were plated with 200 μL per well of ADMEM/F12 supplemented with 5% FBS, 2 mM GlutaMAX, and 1% Penicillin-Streptomycin. Cells were treated with dose responses of doxorubicin, oxaliplatin, or doxaliplatin upon plating. The cells were then cultured for 72 hours following drug treatment, and cell growth was measured by resazurin assay.
# [1] = system: OVCAR8-OXR oxaliplatin-resistant human ovarian cancer cell line; experiment: Cell growth, resazurin assay, OVCAR8-OXR; details: for IC50: read-out: IC50 OVCAR8OXR; for IC80: read-out: IC80 OVCAR8OXR; for Fold Resistance (IC50, OVCAR8OXR vs OVCAR8): based on IC50 values; for Fold Resistance (IC80, OVCAR8OXR vs OVCAR8): based on IC80 values
# Description: Cells were cultured in 10 mL of Advanced DMEM/F12 (ADMEM/F12), supplemented with 5% FBS, 2 mM GlutaMAX, and 1% Penicillin-Streptomycin in 10 cm tissue culture plates. Cells were then plated into 96-well plates with about 2.5×10^3 cells per well. Cells were plated with 200 μL per well of ADMEM/F12 supplemented with 5% FBS, 2 mM GlutaMAX, and 1% Penicillin-Streptomycin. […] The cells were then cultured for 72 hours following drug treatment, and cell growth was measured by resazurin assay.
# [2] = system: APC−/−; TdTomato+ (A-tdt) organoids; experiment: Viability of A-tdt murine colorectal cancer organoids, resazurin assay; type: cell-based; details: 72-h exposure (table title), read-out: IC50 against A-tdt organoids
# Description: (§1) Colonic crypts were isolated and colon organoids were generated from the following mouse genotypes on a C57Bl/6 background: 1. Rosa-LSL-TdTomato (hereafter LSL-tdt), 2. P53^f1/f1; LSL-tdt, and 3. LSL-KRAS^G12D/WT; P53^fl/fl; LSL-tdt mice. Subsequently, the pSECC-APC plasmid (carrying Cre, Cas9, and sgAPC) was transfected into each of the above three genotypes of colon organoids. This transfection strategy generated, in a single step, the following colorectal cancer organoids, including 1. APC^−/−; TdTomato^+ (A-tdt), 2. APC^−/−; P53^−/−; TdTomato^+ (AP-tdt), and 3. APC^−/−; KRAS^G12D/WT; P53^−/−; TdTomato^+ (AKP-tdt). Organoids of the desired genotype were selected for by Wnt/Rspo withdrawal for APC^−/−, Nutlin-3 addition for P53^−/−, and EGF withdrawal for KRAS^G12D.
# (§2) Twenty four hours after seeding the organoids, a media change was performed and dose responses of oxaliplatin, doxorubicin and doxaliplatin were added. […] Organoids were cultured in Advanced DMEM/F12 supplemented with 2 mM GlutaMAX, 1% Penicillin-Streptomycin, 2% B27, and Y-27632 (10 μM).
# [3] = system: A549 human lung carcinoma; experiment: Cell growth, resazurin assay, A549; type: cell-based; details: 96-h exposure (table title)
# Description: as §4
# [4] = system: A2780 human ovarian cancer cell line; details: human, 3 h
# Description: (§5) ICP-MS was performed on an Agilent 7900 ICP-MS in helium mode.
# (§6) The cells in a six-well plate were treated with oxaliplatin, doxaliplatin, or a mixture of doxorubicin and oxaliplatin at indicated concentration in 2 mL of Advanced DMEM/F12 (ADMEM/F12), supplemented with 5% FBS, 2 mM GlutaMAX, and 1% Penicillin-Streptomycin. After three hours, the media were removed. The cells were washed with xl PBS buffer containing EDTA (100 μM, 4 mL×2). To each well, MilliQ water (1.0 mL) was added. After 15 min, the cells were suspended. A portion of the resulting cell lysate (900 μL) was transferred to an Eppendorf tube. The samples were frozen in liquid nitrogen and thawed at room temperature. This procedure was repeated for three times. The insoluble lysate was pelleted (10000 rpm for 10 min). […] Pierce 660 nm Protein solution (200 μL) was added to each well. An aliquot of the lysate (14.2 μL) was added to each well. The plate was shaken and read on a plate reader. The remaining samples were frozen at liquid nitrogen temperature and lyophilized. The dried material was digested with Aristar® ultrapure concentrated nitric acid (70%) at 70° C. for one hour. An aliquot of this solution (142 μL) was mixed with molecular biology grade water (2000 μL) and a terbium internal standard (40 μL, 100 ppb). The platinum content was then determined using an Agilent 7900 ICP-MS in helium mode. The concentration of platinum in the cells was normalized to measured protein concentration described above.
# [5] = system: OVCAR8 human ovarian cancer cell line; experiment: Cell growth, resazurin assay, OVCAR8; type: cell-based; details: 72-h exposure
# Description: as §4
# [6] = system: doxorubicin-resistant A2780ADR ovarian cancer cell line
# Description: as §5, §6
# [7] = system: MDA-MB-231 human breast adenocarcinoma; experiment: Cell growth, resazurin assay, MDA-MB-231; type: cell-based; details: 96-h exposure (table title)
# Description: as §4
# [8] = system: A2780 human ovarian cancer cell line; experiment: Cell growth, resazurin assay, A2780; type: cell-based; details: A2780, 72-h exposure
# Description: as §4
# [9] = system: HL60 human leukemia cell line; experiment: Cell growth, resazurin assay, HL60; type: cell-based; details: 96-h exposure (table title)
# Description: as §4
# [10] = system: APC−/−; P53−/−; TdTomato+ (AP-tdt) organoids; experiment: Viability of AP-tdt murine colorectal cancer organoids, resazurin assay; type: cell-based; details: 72-h exposure (table title), read-out: IC50 against AP-tdt organoids
# Description: as §1, §2
# [11] = system: APC−/−; KRASG12D/WT; P53−/−; TdTomato+ (AKP-tdt) organoids; experiment: Viability of AKP-tdt murine colorectal cancer organoids, resazurin assay; type: cell-based; details: 72-h exposure (table title), read-out: IC50 against AKP-tdt organoids
# Description: as §1, §2
# [12] = system: cisplatin-resistant A2780CIS human ovarian cancer cell line; experiment: Cell growth, resazurin assay, A2780CIS; type: cell-based; details: 72-h exposure
# Description: as §4
# [13] = system: HT-29 human colorectal adenocarcinoma; experiment: Cell growth, resazurin assay, HT-29; type: cell-based; details: 96-h exposure (table title), read-out: IC50 HT-29 (colon)
# Description: as §4
# [14] = system: APC−/−; KRASG12D/WT; P53−/− (AKP) organoids; experiment: Viability of AKP murine colorectal cancer organoids; type: cell-based; details: 72-h exposure, read-out: IC50 against AKP organoids
# Description: (§3) To generate 4. APC^−/−; KRAS^G12D/WT; P53^−/−; (AKP) and 5. APC^−/−; KRAS^G12D/WT; P53^−/−; MSH2^−/− (AKP-MSH2) colon cancer organoids, colonic crypts were isolated and colon organoids were generated from the following mouse genotypes on a C57Bl/6 background: 4. LSL-KRAS^G12D/WT; P53^fl/fl mice and 5. LSL-KRAS^G12D; P53^fl/fl; MSH2^fl/fl mice. Subsequently, the pSECC-APC plasmid (carrying Cre, Cas9, and sgAPC) was transfected into each of the above two genotypes of colon organoids. Following pSECC-APC transfection, Wnt/Rspo withdrawal was performed and surviving (APC^−/−) single organoids were cloned and PCR genotyped for Cre mediated deletion of p53 and/or MSH2, and for Cre mediated activation of oncogenic KRAS^G12D.
# as §2
# [15] = system: PC3 human prostate adenocarcinoma; experiment: Cell growth, resazurin assay, PC3; type: cell-based; details: 96-h exposure (table title)
# Description: as §4
# [16] = system: APC−/−; KRASG12D/WT; P53−/−; MSH2−/− (AKP-MSH2) organoids; experiment: Viability of AKP-MSH2 murine colorectal cancer organoids; type: cell-based; details: 72-h exposure, read-out: IC50 against AKP-MSH2 organoids
# Description: as §3, §2
# [17] = system: doxorubicin-resistant A2780ADR human ovarian cancer cell line; experiment: Cell growth, resazurin assay, A2780ADR; type: cell-based; details: 72-h exposure
# Description: as §4
# [18] = system: A2780 human ovarian cancer cell line; experiment: Whole-cell platinum uptake by ICP-MS, A2780; details: three hours
# Description: as §5, §6
smiles,measurement,setting,value
"COc1cccc2c1C(=O)c1c(O)c3c(c(O)c1C2=O)C[C@@](O)(C(=O)CO)C[C@@H]3O[C@H]1C[C@H](N)[C@H](O)[C@H](C)O1 [DOX, doxorubicin]",IC50,"U2OS human osteosarcoma; Homo sapiens, U2OS",13 nM
same,IC50,"[1]; Homo sapiens, 72 h",250 ± 10 nM
same,IC80,"[1]; Homo sapiens, 72 h",740 ± 50 nM
same,"Fold Resistance (IC50, OVCAR8OXR vs OVCAR8)",[1]; 72-h exposure,2.9 fold
same,"Fold Resistance (IC80, OVCAR8OXR vs OVCAR8)",[1]; 72-h exposure,1.8 fold
same,IC50,[2]; Mus musculus,58 nM
same,IC50,"[3]; Homo sapiens, A549",23 nM
same,Platinum drug uptake,[4]; 0.2 μM,0.023 ± 0.002 nmol/mg protein
same,Platinum drug uptake,[4]; 1 μM,0.12 ± 0.01 nmol/mg protein
same,Platinum drug uptake,[4]; 5 μM,0.63 ± 0.03 nmol/mg protein
same,IC50,"[5]; Homo sapiens, OVCAR-8",86 ± 3 nM
same,IC80,"[5]; Homo sapiens, OVCAR-8",410 ± 20 nM
same,Platinum drug uptake,"[6]; human, 3 h, 0.2 μM",0.0087 ± 0.0008 nmol/mg protein
same,Platinum drug uptake,"[6]; human, 3 h, 1 μM",0.051 ± 0.001 nmol/mg protein
same,Platinum drug uptake,"[6]; human, 3 h, 5 μM",0.36 ± 0.07 nmol/mg protein
same,IC50,"[7]; Homo sapiens, MDA-MB-231",75 nM
same,IC95,[8],160 nM
same,IC50,[8]; Homo sapiens,11 nM
same,IC90,[8]; Homo sapiens,75 nM
same,IC50,"[9]; Homo sapiens, HL-60",43 nM
same,IC50,[10]; Mus musculus,45 nM
same,IC50,[11]; Mus musculus,75 nM
same,IC95,[12],540 nM
same,IC50,[12]; Homo sapiens,50 nM
same,IC90,[12]; Homo sapiens,390 nM
same,IC50,"[13]; Homo sapiens, HT-29",38 nM
same,IC50,[14]; Mus musculus,9.1 nM
same,IC50,[15]; Homo sapiens,41 nM
same,IC50,[16]; Mus musculus,6.5 nM
same,IC95,[17],1600 nM
same,IC50,"[17]; Homo sapiens, A2780 ADR",54 nM
same,IC90,"[17]; Homo sapiens, A2780 ADR",620 nM
"O=C1[O][Pt]2([NH][C@@H]3CCCC[C@H]3[NH]2)[O]C1=O [Ox, oxaliplatin]",IC50,U2OS human osteosarcoma,580 nM
same,"Fold Resistance (IC50, OVCAR8OXR vs OVCAR8)",[1]; 72-h exposure,14 fold
same,"Fold Resistance (IC80, OVCAR8OXR vs OVCAR8)",[1]; 72-h exposure,3.3 fold
same,IC50,[1]; 72-h exposure,8200 ± 1300 nM
same,IC80,[1]; 72-h exposure,40000 ± 2000 nM
same,IC50,[2],2200 nM
same,IC50,[3],400 nM
same,Platinum drug uptake,"[18]; A2780, [Drug] 0.20 μM",0.0029 ± 0.0006 nmol/mg protein
same,Platinum drug uptake,"[18]; A2780, [Drug] 1.0 μM",0.0093 ± 0.0004 nmol/mg protein
same,Platinum drug uptake,"[18]; A2780, [Drug] 5.0 μM",0.050 ± 0.004 nmol/mg protein
same,Platinum drug uptake (separate comparison experiment),"[18]; A2780, single drug 1.0 μM or oxaliplatin 1.0 μM + doxorubicin 1.0 μM",0.011 ± 0.000 nmol/mg protein
same,IC50,[5],580 ± 60 nM
same,IC80,[5],12000 ± 3000 nM
same,Platinum drug uptake (separate comparison experiment),[6],0.0065 ± 0.0004 nmol/mg protein
same,Platinum drug uptake,"[6]; A2780ADR, [Drug] 0.20 μM, three hours",0.0011 ± 0.0004 nmol/mg protein
same,Platinum drug uptake,"[6]; A2780ADR, [Drug] 1.0 μM, three hours",0.0039 ± 0.0001 nmol/mg protein
same,Platinum drug uptake,"[6]; A2780ADR, [Drug] 5.0 μM, three hours",0.023 ± 0.001 nmol/mg protein
same,IC50,[7],920 nM
same,IC50,[8],170 nM
same,IC90,[8],590 nM
same,IC95,[8],5600 nM
same,IC50,[9],560 nM
same,IC50,[10],1500 nM
same,IC50,[11],4100 nM
same,IC50,[12],430 nM
same,IC90,[12],6600 nM
same,IC95,[12],13000 nM
same,IC50,[13],470 nM
same,IC50,[14],1400 nM
same,IC50,[15],1000 nM
same,IC50,[16],2200 nM
same,IC50,[17],430 nM
same,IC90,[17],2400 nM
same,IC95,[17],29000 nM
